Measurements: patent US8637462B2, “Methods for reducing platelet counts and/or platelet adhesion by administering a GC-B receptor agonist” (Mayo Foundation for Medical Education and Research, priority 2011, dated 2014)
“Also recorded” adds a separate entry of the source.

Legend:
tubulin [1] = assay: Platelet spreading assay, tubulin staining; format: cell-based; settings: FIG. 10
Description: (§1) To confirm these findings, tubulin and actin also were stained on platelets that were viable and functionally active using a spreading assay.

actin = assay: Platelet spreading assay, actin staining; format: cell-based; settings: FIG. 10
Procedure: (§2) The following was performed to determine if CNP could affect cytoskeletal proteins such as tubulin and/or actin. To delineate this function of CNP, human platelets were either treated with the Lbab polypeptide or CNP and were placed on slides using cytospin Immunocytochemistry was performed with anti-tubulin or anti-actin antibodies.
as §1

tubulin [2] = assay: Tubulin polymerization assay; format: biochemical; settings: nucleation, growth and steady state phases; FIG. 11
Procedure: To demarcate whether the effects of CNP on microtubules was direct or indirect, a microtubule polymerization assay from cytoskeleton was utilized as per manufacturer's protocol. The assay studied all three phases of microtubule formation, namely nucleation, growth, and steady state equilibrium.
A 96-well plate was warmed in the incubator to 37° C. for 10 minutes. During this time, 10× stock solutions of compounds to be tested were prepared. 5 μL of control buffer, 5 μL of the 10× paclitaxel stock, and 5 μL of the 10× test compound were added to their respective wells. Next, the 96 well plate was placed back into warm plate reader for 1 minute. Finally, 50 μL of the tubulin reaction mix was added to each of the wells as quickly as possible, and the plate reader was started.

platelets [3] = assay: Platelet adhesion to collagen; format: cell-based, human or C57B1/6 mice; settings: for number of platelets adhered to collagen: n=5; for platelet adhesion to collagen (in words): FIG. 7; for pseudopodia formation of platelets adhered to collagen: light microscopy
Procedure: (§3) The role of CNP on platelet aggregation and platelet adhesion to fibrinogen, fibronectin, and collagen were assessed. Human platelets or platelets from C57B1/6 mice were isolated and treated with either CNP or the Lbab polypeptide for 30 minutes at 37° C. with 5% CO2. Following treatment, the platelets were gently added to cover slips pre-blocked with 1% BSA and pre-coated with fibrinogen, fibronectin, or collagen (50 μg/mL, CHRONOLOG Corp., Havertown, Pa.). Ca^+2 and Mg^+2 were added to 1 mM and 2 mM, respectively, before incubation at 37° C. for 30 minutes. The platelets were then fixed and permeabilized before staining with TRITC Phalloidin (0.5 μg/mL; Sigma) for an hour. The platelets were then gently washed a couple of times with PBS and mounted in Vectashield mounting medium (Vector laboratories, Burlingame, Calif.) and sealed with nail polish as described elsewhere (Moraes et al., J. Thromb. Haemost., 8(11):2530-41 (2010); and Bougie et al., Blood, 116(16):3033-8 (2010)). Images were acquired from five consecutive fields using a Zeiss Axioscop microscope (Carl Zeiss, Oberkochen, Germany) with a Zeiss 100× oil-immersion lens. The images were analyzed using ImageJ software.
Platelets were isolated and treated with either CNP or the mutant Lbab polypeptide for 30 minutes at 37° C. with 5% CO2. Following treatment, the platelets were gently added to cover slips pre-blocked with 1% BSA and pre-coated with collagen ([…], CHRONOLOG-corporation). Ca^+2 and Mg^+2 were added to 1 mM and 2 mM, respectively, before incubation at 37° C. for 30 minutes. The platelets were then fixed and permeabilized before staining with TRITC Phalloidin (0.5 μg/mL; Sigma) for an hour. The platelets were then gently washed a couple of times with PBS and then mounted in Vectashield mounting medium (Vector laboratories, Burlingame, Calif.) and sealed with nail polish. Images were acquired from five consecutive fields using Zeiss Axioscop microscope (Carl Zeiss, Oberkochen, Germany) with a Zeiss 100× oil-immersion lens and analyzed using ImageJ software.
Cells were placed in Trump's fixative, 4% formaldehyde: 1% glutaraldehyde for 1 hour or longer at 4° C. After two rinses in 0.1 M sodium phosphate buffer (pH 7.2), samples were dehydrated in a graded ethanol series to 100% ethanol at which time they were critical point dried with liquid carbon dioxide. They were then mounted on specimen stubs, sputter-coated with gold-palladium, and examined with a Hitachi S4700 scanning electron microscope.

[4] = tested on: GC-B present on megakaryocytes; assay: cGMP production in megakaryocytes (BIOTRAK cGMP enzyme immunoassay); format: cell-based, mouse; settings: 30 minutes at 37° C.; FIG. 3
Sequence of GC-B present on megakaryocytes (Q6VVW5 23-1047 limits assumed): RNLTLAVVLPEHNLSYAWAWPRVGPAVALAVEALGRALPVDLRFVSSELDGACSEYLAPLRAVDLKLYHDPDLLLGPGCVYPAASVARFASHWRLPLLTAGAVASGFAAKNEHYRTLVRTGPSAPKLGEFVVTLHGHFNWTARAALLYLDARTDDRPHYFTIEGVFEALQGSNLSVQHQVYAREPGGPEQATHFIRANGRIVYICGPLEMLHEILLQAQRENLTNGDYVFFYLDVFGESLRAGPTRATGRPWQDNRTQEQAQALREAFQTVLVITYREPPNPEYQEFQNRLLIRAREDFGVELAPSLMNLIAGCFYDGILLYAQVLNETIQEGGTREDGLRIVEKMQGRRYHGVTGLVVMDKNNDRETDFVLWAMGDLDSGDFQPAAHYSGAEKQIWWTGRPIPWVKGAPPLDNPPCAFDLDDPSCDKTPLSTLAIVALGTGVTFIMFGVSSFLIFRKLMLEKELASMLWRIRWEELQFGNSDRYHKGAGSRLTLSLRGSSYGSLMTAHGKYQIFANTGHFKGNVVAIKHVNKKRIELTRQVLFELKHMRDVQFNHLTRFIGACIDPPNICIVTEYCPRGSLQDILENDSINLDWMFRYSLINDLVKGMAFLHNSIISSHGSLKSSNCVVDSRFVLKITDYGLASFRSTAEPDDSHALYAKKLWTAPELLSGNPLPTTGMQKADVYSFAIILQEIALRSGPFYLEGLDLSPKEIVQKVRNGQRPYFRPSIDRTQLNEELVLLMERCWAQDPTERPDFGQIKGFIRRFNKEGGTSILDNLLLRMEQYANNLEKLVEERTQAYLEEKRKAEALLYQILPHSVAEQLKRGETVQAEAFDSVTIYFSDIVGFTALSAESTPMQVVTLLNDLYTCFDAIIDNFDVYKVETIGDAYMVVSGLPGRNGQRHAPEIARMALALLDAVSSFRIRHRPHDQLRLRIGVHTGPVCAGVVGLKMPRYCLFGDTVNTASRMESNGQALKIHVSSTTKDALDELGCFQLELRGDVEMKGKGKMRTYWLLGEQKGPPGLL
Description: Primary hematopoietic progenitor cells were isolated from mouse fetal livers of E13.5 embryos (C57B1/6) or from femurs and tibias of C57B1/6 mice using the EasySep negative selection mouse hematopoietic progenitor enrichment kit (Stem Cell Technologies, Vancouver, BC). The progenitor cells were then expanded for two days in serum free expansion media containing 50% RPMI using standard techniques to generate megakaryocytes (Huang et al., J. Clin. Invest., 117(12):3890-9 (2007) and Muntean and Crispino, Blood, 106(4):1223-31 (2005)). The purity of the megakaryocytes was assessed using acetylcholinesterase (AchE) staining using standard protocols and FACS with CD41 (Emfret Analytics).
The following was performed to determine if GC-B present on megakaryocytes is functional and responsive to CNP. Megakaryocytes were treated with either CNP or a single residue mutant CNP designated Lbab for 30 minutes at 37° C. with 5% CO2 in IMDM media supplemented with 1% Nutridoma, penicillin, streptomycin, L-glutamine, and recombinant TPO. The Lbab polypeptide (FIG. 2) is described elsewhere (Yoder et al., Peptides, 29(9):1575-81 (2008)).
After the incubation, the cells were lysed, and the amount of cGMP was measured using a BIOTRAK cGMP enzyme immunoassay system Kit (GE Healthcare Bio-Sciences Corp.).

tubulin [5] = assay: Immunocytochemistry of tubulin in platelets (cytospin); format: cell-based; settings: human platelets; FIG. 9
Procedure: as §2
PRP was spun down in a cytospin at 1000 rpm for 2 minutes to obtain slides of mouse/human platelets. These slides were fixed and blocked with 10% normal goat serum and incubated with mouse anti-tubulin antibody at 1:700 (Sigma) in PBS. Goat anti-mouse Alexa Fluor 594 at 1:500 (Molecular Probes) was used to visualize the tubulin. Matched negative controls also were used.

megakaryocytes = assay: Megakaryocyte colony formation assay (MegaCult-C); format: cell-based, mouse; settings: bone marrow cells, 6 to 8 days; FIG. 4
Procedure: To determine the effect of CNP on the colony forming ability of megakaryocytes, colony formation assays were conducted using MegaCult®-C (StemCell Tech) as per the manufacturer's protocol. Mice were euthanized, and bone marrow was collected from femurs and tibias by flushing the bones multiple times with IMDM. Once a single cell suspension was achieved, the cells were added to MegaCult®-C medium containing cytokines and collagen. The cell suspension was then dispensed into the chamber slide at the concentration of 20,000 cells/well and incubated at 37° C. with 5% CO2 and >95% humidity for 6 to 8 days. The cells were then dehydrated and fixed with acetone followed by acetylcholinesterase staining. The colonies were scored using a 5× objective, and 10× objective was used to examine colonies in greater detail.

platelets [6] = assay: Platelet adhesion to fibrinogen; format: cell-based, human or C57B1/6 mice; settings: CNP-treated vs Lbab polypeptide-treated
Procedure: as §3

platelets [7] = assay: Platelet adhesion to fibronectin; format: cell-based, human or C57B1/6 mice; settings: CNP-treated vs Lbab polypeptide-treated
Procedure: as §3

platelets [8] = assay: cGMP production in washed platelets; format: cell-based, mouse; settings: 30 minutes at 37° C. in Tyrode's buffer with 1 mM Ca+2; FIG. 6
Procedure: Platelet isolation was adapted from studies described elsewhere (Boylan et al., Blood, 108(3):908-14 (2006); Moraes et al., J. Thromb. Haemost., 8(11):2530-41 (2010); and Bougie et al., Blood, 116(16):3033-8 (2010)). Briefly, C57BL/6 mice were anesthetized with ketamine/xylazine. Blood was obtained from the vena cava and collected into 3.8% sodium citrate. The whole blood was then diluted with equal volumes of Tyrode's buffer containing PGE1 (50 ng/mL), glucose (1 mg/mL), and BSA (2.5 mg/mL) before being spun at 280×g to obtain platelet rich plasma (PRP). The upper […] of the PRP was collected and spun for 10 minutes to collect the platelets. The platelets were then washed with Tyrode's buffer before any analysis was performed. The platelets were counted, visualized by microscopy, and then used for FACS analysis, immunostaining, and western blotting. CD41, CD42D, and GC-B expression was detected by FACS (FIG. 5, middle panel).
The effect of CNP on cGMP production in platelets was studied. Washed platelets were treated with CNP or the mutant Lbab polypeptide for 30 minutes at 37° C. with 5% CO2 in Tyrode's buffer with 1 mM Ca^+2. After the incubation, the cells were lysed, and the amount of cGMP was calculated according to the standard curve that was generated from parallel reactions within the same experiment.

platelets [9] = assay: Platelet aggregation (lumi-aggregometer); format: cell-based; settings: data not shown
Procedure: The role of CNP on platelet aggregation and platelet adhesion to fibrinogen, fibronectin, and collagen were assessed. Human platelets or platelets from C57B1/6 mice were isolated and treated with either CNP or the Lbab polypeptide for 30 minutes at 37° C. with 5% CO2. Following treatment, the platelets were gently added to cover slips pre-blocked with 1% BSA and pre-coated with fibrinogen, fibronectin, or collagen (50 μg/mL, CHRONOLOG Corp., Havertown, Pa.). Ca^+2 and Mg^+2 were added to 1 mM and 2 mM, respectively, before incubation at 37° C. for 30 minutes. The platelets were then fixed and permeabilized before staining with TRITC Phalloidin (0.5 μg/mL; Sigma) for an hour. […] The images were analyzed using ImageJ software.
Platelet aggregation was performed at 37° C. in lumi-aggregometer in the presence of luciferin-luciferase to simultaneously measure light transmission and secretion of dense granule-derived ATP. […] Platelet aggregation and secretion was measured in a lumi-aggregometer (Chrono-Log, Havertown, Pa.) for 1 minute following which the polypeptide (CNP or Lbab) was added to the platelets, and aggregation and secretion were measured once again for 2 minutes in order to determine if the polypeptide itself activates the platelets. […] Aggregation and secretion were measured for 15 minutes.

Compound	tubulin distribution in spreading platelets (tubulin [1])	actin distribution / function in spreading platelets (actin)	tubulin polymerization (O.D.) (tubulin [2])	number of platelets adhered to collagen (platelets [3]; 500 nM)	number of platelets adhered to collagen (platelets [3]; 1000 nM)	platelet adhesion to collagen (in words) (platelets [3])	pseudopodia formation of platelets adhered to collagen (platelets [3])	cGMP production by megakaryocytes [4]	marginal band formation (tubulin) within platelets (tubulin [5])	megakaryocyte colony formation (megakaryocytes)	megakaryocyte colony size (megakaryocytes)	filopodia of platelets in the presence of collagen (platelets [3]; electron microscopy, varying concentrations, FIG. 8)	adhesion of platelets to fibrinogen (platelets [6])	adhesion of platelets to fibronectin (platelets [7])	cGMP production in platelets (platelets [8])	platelet aggregation (platelets [9])
CC(=O)O[C@H]1C(=O)[C@@]2(C)[C@H]([C@H](OC(=O)c3ccccc3)[C@]3(O)C[C@H](OC(=O)[C@H](O)[C@@H](NC(=O)c4ccccc4)c4ccccc4)C(C)=C1C3(C)C)[C@]1(OC(C)=O)CO[C@@H]1C[C@@H]2O [Taxol, paclitaxel, reference compound]	inhibits tubulin distribution in spreading platelets	minimal effect on actin distribution	effects on the growth and steady state phases of tubulin polymerization													
Lbab: single residue mutant CNP (SEQ ID NO:2) with Arg to Gly substitution, used as control polypeptide (GLSKGCFGLKLDGIGSMSGLGC; Mutant CNP; listed as Homo sapiens) [reference compound]	does not demonstrate such an affect			4536±43	4390±24	near normal platelet adhesion to collagen	normal sprouting of pseudopodia	but not the Lbab polypeptide, stimulated cGMP production	capable of forming clear marginal bands							
c-type natriuretic peptide [CNP]	inhibits tubulin distribution in spreading platelets	minimal effect on actin distribution; also recorded: does not influence actin function significantly	has effects on the growth and steady state phases of tubulin polymerization	2451±39	1712±20	attenuated platelet adhesion to collagen	abnormal pseudopodia formation	stimulated a dose-dependent increase in cGMP formation	decreased marginal band formation	inhibited colony formation	significantly affected colony size	aberrant filopodia	no significant difference	no significant difference	did not affect cGMP levels	unaffected
